Results published in PMC6348381, “Discovery of an MLLT1/3 YEATS Domain Chemical Probe” (Angewandte Chemie (International Ed. in English), 2018).

Each compound was assayed against T1, MLLT1 YD (Homo sapiens, UniProt Q03111) (assay: AlphaScreen (AS) assay, MLLT1 YEATS domain). Conditions: not given.
T1 construct: made in house; host or cells: E. coli Rosetta
T1 sequence (Q03111 1-138 limits assumed): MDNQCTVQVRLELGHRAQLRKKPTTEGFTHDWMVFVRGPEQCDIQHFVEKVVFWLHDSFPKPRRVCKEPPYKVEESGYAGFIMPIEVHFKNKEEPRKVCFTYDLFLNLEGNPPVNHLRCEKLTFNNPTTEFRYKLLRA
Type: binding
Method: II.IV Protein Expression and Purification
Human bromodomains were cloned, expressed and purified as previously described. The cloning, expression and purification of human YEATS domains are described as follows; Sequences for the wild type YEATS domains of MLLT1, MLLT3, GAS41 and YEATS2 were cloned into expression vectors (Table S1). E. coli Rosetta cells were grown in TB medium at 37°C. Overexpression was induced after five hours by addition of IPTG to a final concentration of 0.4 mM and cells were incubated at 17°C overnight. Cells were harvested by centrifugation and the cell pellet was resuspended in cold binding buffer (50 mM Tris at pH 7.5, 500 mM NaCl, 20 mM imidazole, 2 mM DTT) on a magnetic stirring plate at 4°C. The suspension was lysed using an Avestin EmulsiFlex-C5 homogeniser (1 pass without pressure, four passes with pressure between 1000-1500 bar). The lysate was clarified via centrifugation at 16,000 rpm at 4°C for 1 hour (JLA-16 rotor in Beckmann Coulter Avanti J- […]
The supernatant was loaded onto a standard NiNTA column (HisTrap
FF, 5 ml, GE Healthcare Lifesciences) on an ÄKTAxpress system (GE). After washing with binding buffer, the target protein was eluted at 300 mM imidazole. The eluted peak fractions were pooled and concentrated to 5 ml (Amicon concentrators, 10 kDa molecular weight cut off (MWCO)) and then separated via size exclusion chromatography (buffered with 20 mM Tris at pH 7.5, 500 mM NaCl, 2 mM DTT) using a GE Superdex 75 column on an […]
(NanoDrop ND-1000 Spectrophotometer) and protein identity was verified via SDS-PAGE and LC/MS. Pooled fractions were then again concentrated to at least 2 mg/ml and stored at […]
(§1) (1 picture or pasted object on this page, not shown here)

Compared with `CC1CCN(Cc2nc3cc(NC(=O)c4ccc5c(cnn5C)c4)ccc3[nH]2)C1` (stereo not drawn) [Compound 90], `C[C@@H]1C[C@H](C)CN(Cc2nc3cc(NC(=O)c4ccc5c(cnn5C)c4)ccc3[nH]2)C1` [Compound 82] is 7.8-fold higher in IC50: 730 ± 590 nM for the first, 5700 ± 2400 nM for the second. The first is the more potent here.

Going from `COCC1CCCN1Cc1nc2cc(NC(=O)c3ccc4c(cnn4C)c3)ccc2[nH]1` (stereo not drawn) [Compound 88] to `CCC1CCCN1Cc1nc2cc(NC(=O)c3ccc4c(cnn4C)c3)ccc2[nH]1` (stereo not drawn) [Compound 87], the IC50 falls from 970 ± 470 nM to 300 ± 60 nM (3.2-fold). The second is the more potent here.

`CC(c1nc2cc(NC(=O)c3ccc(Cl)cc3)ccc2[nH]1)N1CCCCC1` (stereo not drawn) [Compound 81] and `O=C(Nc1ccc2[nH]c(CCN3CCCCC3)nc2c1)c1ccc(Cl)cc1` [Compound 84] cannot be ordered by IC50: > 20000 nM for the first, > 20000 nM for the second.

`O=C(Nc1ccc2[nH]c(CN3CCCCC3)nc2c1)c1ccccc1Cl` [Compound 68] and `COc1ccccc1C(=O)Nc1ccc2[nH]c(CN3CCCCC3)nc2c1` [Compound 69] cannot be ordered by IC50: > 20000 nM for the first, > 20000 nM for the second.

`Cn1ncc2cc(C(=O)Nc3ccc4[nH]c(CN5CCCCC5)nc4c3)ccc21` [Compound 79] and `CC1CCN(Cc2nc3cc(NC(=O)c4ccc5c(cnn5C)c4)ccc3[nH]2)C1` (stereo not drawn) [Compound 89] are within error of each other in IC50: 1600 ± 540 nM for the first, 600 ± 460 nM for the second.

`Cc1ccc(C(=O)Nc2ccc3[nH]c(CN4CCCCC4)nc3c2)cc1C` [Compound 72] and `COc1ccc(C(=O)Nc2ccc3[nH]c(CN4CCCCC4)nc3c2)cc1` [Compound 74] are within 1.5-fold of each other in IC50: 5500 ± 60 nM for the first, 6400 ± 650 nM for the second.

First: O=C(Nc1ccc2[nH]c(CN3CCCCC3)nc2c1)c1ccc(-n2ccnc2)cc1 [Compound 77]
Second: O=C(Nc1ccc2[nH]c(CN3CCCCC3)nc2c1)c1cccc(OC(F)(F)F)c1 [Compound 70]
The IC50 of the first is lower: 1000 ± 590 nM for the first, > 20000 nM for the second. The first is the more potent here.

Going from `CC1CCN(Cc2nc3cc(NC(=O)c4ccccc4)ccc3[nH]2)CC1` [Compound 83] to `CC1CCCN1Cc1nc2cc(NC(=O)c3ccc(Cl)cc3)ccc2[nH]1` (stereo not drawn) [Compound 85], the IC50 falls from > 20000 nM to 330 ± 110 nM. The second is the more potent here.

Compared with `C[C@@H]1CCC[C@H](C)N1Cc1nc2cc(NC(=O)c3ccc(Cl)cc3)ccc2[nH]1` [Compound 80], `Cn1ncc2cc(C(=O)Nc3ccc4[nH]c(CN5C[C@H]6C[C@H]6C5)nc4c3)ccc21` [Compound 86] is lower in IC50: > 20000 nM for the first, 1400 ± 860 nM for the second. The second is the more potent here.

The compounds below were run against T2, MLLT3 YD (Homo sapiens, UniProt P42568) (assay: Isothermal titration calorimetry (ITC), MLLT3 YD). Conditions: not given.
T2 construct: made in house; host or cells: E. coli Rosetta
Type: binding
Method: Supplementary Table 1. AlphaScreen selectivity screen of compound 92 over other acyllysine […]
II.III Isothermal Titration Calorimetry (ITC)
Experiments were carried out on a Nano -ITC Standard Volume Instrument (TA Instruments).
All experiments were carried out at 25 °C in 20 mM HEPES pH 7.5, 150 mM NaCl, 0.5 mM TCEP and 5% glycerol. Protein soluti ons were buffer exchanged by gel filtration. The titrations were conducted using an initial injection of 2 μL followed by 32 injections of 8 μL.
Background dilution heat was subtracted from each experiment. Thermodynamic parameters […]
changes in free energy, enthalpy and entropy respectively. Independent single site binding models were employed in data analysis.
(also on this page, place not known: ac yllysine Nano-ITC -T 1/ KB. ΔH Molar&ratio&[injectant/cell] Time&[s] Corrected&Heat&Rate&[ucal/s] Experiment&1 K Experiment&2 K K)
as §1

For `C[C@@H]1CCCN1Cc1nc2cc(NC(=O)c3ccc4c(cnn4C)c3)ccc2[nH]1` [Compound 91], the Kd was 540 nM.

These compounds were tested against T3, endogenous MLLT1 in MV4;11 cells (Homo sapiens, UniProt Q03111) (assay: Cellular thermal shift assay (CETSA), MV4;11 cells). Conditions: up to 10 μM.
T3 construct: with endogenous MLLT1 in MV4;11 cells; endogenous in cells; host or cells: MV4;11
Type: cell-based
Method: Supplementary Table 2. Thermal stabilisation of compound 1, 92 and Bromosporine with recombinant human bromodomain proteins. *50 µM compound concentration. †10 µM compound […]
II.VIII Cellular Thermal Shift Assay[6]
HEK293 and MV4;11 cells were cultured at 37 °C in a humidified 5% CO2 atmosphere in DMEM Medium containing 10% FBS, respectively. Cells were grown until approximately […]
DMSO final concentrati on) for 30 minutes. Cells were then collected, washed with PBS, transferred in PCR tubes, and pelleted by centrifugation (300 g, 3 min, RT.) The PBS was removed, and the cell pellets heated at the indicated temperature for 3 minutes in a PCR machine (UNO96 , VMR) and then placed on ice. Lysis buffer (50 mM Tris pH 7.5, 0.8% v/v NP-40, 5% v/v glycerol, 1.5 mM MgCl2, 100 mM NaCl, 25 mM NaF, 1mM Na3VO4, 1mM PMSF, 1mM DTT, 10 μg/mL TLCK, 1 μg/mL Leupeptin, 1 μg/mL Aprotinin, 1 μg/mL soy bean trypsin, ≥250 units/ mL Benzonase) was added and the cells lysed by 3 freeze -thaw cycles in liquid nitrogen. Aggregated proteins were removed by centrifugation (17000 g, 20 min, 4 °C) and the protein concentration of the retained soluble fraction determined. 4× sample loading buffer (Bio-Rad) containing 20% v/v DTT was added and samples were heated for 6 min at 90 °C prior to separation by SDS -PAGE. […]

T3 sequence (Q03111 whole entry): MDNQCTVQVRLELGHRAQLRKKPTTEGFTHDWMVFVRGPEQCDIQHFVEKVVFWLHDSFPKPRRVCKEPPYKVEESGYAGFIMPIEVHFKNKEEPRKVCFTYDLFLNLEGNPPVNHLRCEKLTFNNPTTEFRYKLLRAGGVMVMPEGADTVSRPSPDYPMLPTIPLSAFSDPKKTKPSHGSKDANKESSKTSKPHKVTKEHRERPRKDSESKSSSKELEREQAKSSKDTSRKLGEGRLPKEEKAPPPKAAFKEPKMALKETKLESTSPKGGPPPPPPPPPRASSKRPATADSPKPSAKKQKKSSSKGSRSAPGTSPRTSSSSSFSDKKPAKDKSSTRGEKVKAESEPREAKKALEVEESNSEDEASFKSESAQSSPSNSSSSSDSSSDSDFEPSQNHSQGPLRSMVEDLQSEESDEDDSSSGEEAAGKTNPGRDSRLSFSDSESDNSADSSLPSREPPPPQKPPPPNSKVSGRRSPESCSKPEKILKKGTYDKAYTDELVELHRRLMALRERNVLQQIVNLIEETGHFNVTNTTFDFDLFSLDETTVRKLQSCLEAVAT

With `C[C@@H]1CCCN1Cc1nc2cc(NC(=O)c3ccc4c(cnn4C)c3)ccc2[nH]1` [Compound 91] the “thermal stabilisation of MLLT1 (CETSA)” value was “no thermal stabilisation”.

These compounds were tested against T4, MLLT1 (Homo sapiens, UniProt Q03111) (assay: NanoBRET assay, full length MLLT1:Histone 3.3 in HEK293 cells). Conditions: relative to the DMSO control.
T4 construct: We also developed a full length MLLT1:Histone 3.3 (H3.3) NanoBRET assay; host or cells: HEK293
Type: cell-based
Method: Compounds were then added directly to media (in the presence of SAHA 2.5 M) at final concentrations 0.01-30 μM or an equivalent amount of DMSO as a vehicle control, and the plates were incubated for 24 h at 37 °C in the presence

T4 sequence (Q03111 whole entry): as above

`O=C(CCCCCCC(=O)Nc1ccccc1)NO` [SAHA, suberoylanilide hydroxamic acid, reference compound] was tested, and the “BRET activity (mBU), MLLT1:H3.3 NanoBRET” value was “significant increase in BRET activity”.

The compounds below were run against T5, MLLT3 (Homo sapiens, UniProt P42568) (assay: NanoBRET assay, full-length MLLT3-NanoLuc / histone H3.3-HaloTag in HEK293 cells). Conditions: 24 h, in the presence of 2.5 μM SAHA.
T5 construct: in full length MLLT3 N-terminal NanoLuc, Histone; host or cells: HEK293
T5 sequence (P42568 1-568): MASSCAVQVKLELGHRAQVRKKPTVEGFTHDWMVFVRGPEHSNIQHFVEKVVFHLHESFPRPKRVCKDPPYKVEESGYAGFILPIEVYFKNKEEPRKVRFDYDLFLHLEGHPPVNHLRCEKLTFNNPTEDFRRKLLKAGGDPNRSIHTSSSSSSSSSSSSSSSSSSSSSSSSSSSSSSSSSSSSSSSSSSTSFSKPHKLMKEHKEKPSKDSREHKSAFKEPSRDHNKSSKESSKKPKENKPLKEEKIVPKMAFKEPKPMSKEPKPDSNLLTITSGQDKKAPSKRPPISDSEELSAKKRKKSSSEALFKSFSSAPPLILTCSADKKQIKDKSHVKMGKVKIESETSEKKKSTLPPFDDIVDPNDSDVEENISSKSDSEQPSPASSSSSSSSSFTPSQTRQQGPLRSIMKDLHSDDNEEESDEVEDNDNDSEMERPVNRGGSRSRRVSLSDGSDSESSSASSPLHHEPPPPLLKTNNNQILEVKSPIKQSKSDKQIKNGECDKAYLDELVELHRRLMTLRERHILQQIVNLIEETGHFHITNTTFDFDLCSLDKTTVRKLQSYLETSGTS
Type: cell-based
Method: II.V NanoLuciferase Bioluminescent Resonance Energy Transfer (NanoBRET) Assay[2]
HEK293 cells ([…]) were plated in each well of a 6-well plate after 6 h cells were co-transfected with Histone H3.3-HaloTag (NM_002107) and a NanoLuciferase fusion of MLLT1 or MLLT3 (WT sequences from Promega HaloTag® human ORF in pFN21A) at a 1:500 and 1:10 (NanoLuc® to HaloTag®) ratio respectively with FuGENE HD transfection regent. Sixteen hours post-transfection, cells were collected and exchanged into media containing phenol red-free DMEM and 4% FBS in the absence (control sample) or the presence (experimental sample) of 100 nM NanoBRET 618 fluorescent ligand (Promega).
Cell density was adjusted to 2 x 10^5 cells/mL and then seeded 100 µL/well in a white 96-well plate (Corning Costar #3917). Compounds were then added directly to media (in the presence of SAHA 2.5 µM) at final concentrations 0.01-30 μM or an equivalent amount of DMSO as a vehicle control, and the plates were incubated for 24 h at 37 °C in the presence […]
NanoBRET Nano-Glo substrate (Promega) was added to both control and experimental samples at a final concentration of 10 µM. Readings were performed within 5 minutes using a ClarioSTAR (BMG labtech) equipped with LP 480 and 610 nm filters. A corrected BRET ratio was calculated and is defined as the ratio of the emission at 610 nm/[…] for experimental samples minus the emission at 6 10 nm/640 nm for control samples (not incubated with NanoBRET fluorescent ligand). BRET ratios are expressed as milliBRET units (mBU), where 1 mBU corresponds to the corrected BRET ratio multiplied by 1000.
3.3 C-terminal HaloTag in HEK293 cells. Treatment with SAHA (2.5 µM) alone increases MLLT3- […]
dependent manner. Mean±SD of BRET ratio (mBU), n=4 technical replicates.
(also on this page, place not known: 5) -well H3.3 -HaloTag pFN21A ) ( NanoLuc® H aloTag®) post -transfection, red -free Nano -Glo 10 5 6 10 6 10 l igand). cells . […]

`C[C@@H]1CCCN1Cc1nc2cc(NC(=O)c3ccc4c(cnn4C)c3)ccc2[nH]1` [Compound 91] showed an IC50 of 5800 ± 70 nM.

Same assay, conditions: 24 h, representative assay

In the case of `O=C(CCCCCCC(=O)Nc1ccccc1)NO` [SAHA, suberoylanilide hydroxamic acid, reference compound], the “MLLT3-Histone 3.3 interaction (mBU)” value is reported as “increases”.

Each compound was assayed on MV4;11 AML cells (assay: qPCR gene expression in MV4;11 cells). Conditions: 1 μM, 72 h.
Type: cell-based, human
Method: II.XII Analysis of gene expression by quantitative polymerase chain reaction (qPCR) […]
MV4;11 cells were cultured at 37 °C in a humidified 5% CO2 atmosphere in RPMI medium containing 10% FBS and 1% L-glutamine. Cells were seeded at a density of 2 x 10^6 cells/well in 6 well plates pre-coated in polyhema, to enable suspension culture. Cells were […]
and washing with PBS, RNA was extracted from cells using RNeasy Mini Kit (Qiagen), following the manufacturer’s protocol. Total RNA was quantified by Nanodrop and 500 ng of RNA was converted to cDNA using GoScript Reverse Transcription System (Promega). The final cDNA products were quantified by QPCR using FAM dye-labelled Taqman primers and probe sets (see table below). Data was analysed using the comparative cycle threshold (CT) method where CT values were normalised by subtracting that from an endogenous housekeeping gene (VIC dye-labelled ACTB). The gene expression levels from compound-treated cells are presented as relative to those of DMSO treated control cells. Statistical analyses were carried out using two-way ANOVA (GraphPad Prism 7).
ACTB (Beta Actin) Endogenous Control 4326315E
Supplementary Table 4. Taqman Gene Expression Assays (Life Technologies). Taqman MGB probes have 5’ FAM reporter dye (or VIC) and 3’ non-fluorescent quencher. […]

In the case of `C[C@@H]1CCCN1Cc1nc2cc(NC(=O)c3ccc4c(cnn4C)c3)ccc2[nH]1` [Compound 91], the “gene expression of MYC, MPO, DDN, CTSG, CD86 (qPCR)” value is reported as “diminished cell activity”.
